Here are results for two sequences from patent US20090233871A1, “Complexed polypeptide and adjuvant for improved vaccines” (priority 2004, published 2009).

Assay [1] has as its system CD8+ CTLs, T2 stimulators pulsed with polypeptide. The assay is classed as in vivo, HLA-A2 transgenic mice. As to conditions: 100 μg CpG, equimolar CpG:peptide, s.c., day 10 (FIG. 8).
The test system of assay [2] is IFNγ-secreting CD8+ CTLs. The assay can be described thus: primary IFNγ Elispot of CD8+ CTLs from mice primed with peptide plus CpG. As to conditions: 100 μg polypeptide + 100 μg CpG + 10 μg MPL-AF s.c., spleens day 10.

Turning to KTWGQYWQV, the “priming on addition of a KCSRNR amino acid sequence vs native polypeptide” value in assay [1] is “increased priming”.

Turning to “LTFNYRNL (Synthetically generated peptide) [H60]”, in assay [2], the “frequencies of IFNγ-secreting CTLs (priming efficiency)” value is on record as “most inefficient”.
